Data from patent publication US10913757B2, “Hydroxycinnamic derivatives, methods and uses thereof” (UNIVERSIDADE DO PORTO, priority 2016, dated 2021).
pIC50: −log10 of the molar value.

Legend:
[1] = DPPH radical scavenging activity (TAC assay); format: biochemical; details: ethanol, absorbance 515 nm
Source text: (§1) In an embodiment, the AntiOxCINs antioxidant ranking activity hierarchy was established by in vitro non-cell methods. The selected total antioxidant capacity (TAC) assays (DPPH, ABTS and GO) involved the spectrophotometric measurement of the radical absorbance decrease as a result of an in situ radical deactivation by an antioxidant. Compounds with higher antioxidant activity display lower IC50 values. […] This decrease was attenuated/ameliorated by the increment of the spacer length and/or the introduction of additional hydroxyl group in the aromatic ring.
(§2) The radical scavenging activity of AntiOxCINs was evaluated by means of total antioxidant capacity assays based on DPPH., ABTS.^+ and GO. radicals. All these methods involved the spectrophotometric measurement of the absorbance decrease resulting from radical (DPPH., ABTS.^+ or GO.) deactivation with an antioxidant. The results were expressed in IC50, which is defined as the minimum antioxidant concentration necessary to reduce the amount of radical by 50%. Antioxidant assays were performed in a multiplate reader (Powerwave XS Microplate Reader) of Bio-Tech instruments.
In an embodiment, the DPPH. radical scavenging activity was performed as follows: solutions of the test compounds with increasing concentrations (range between 0 μM and 500 μM) were prepared in ethanol. A DPPH′ ethanolic solution (6.85 mM) was also prepared and then diluted to reach the absorbance of 0.72±0.02 at 515 nm. Each compound solution (20 μL) was added to 180 μL of DPPH′ solution in triplicate, and the absorbance at 515 nm was recorded minutely over 45 minutes. […] Dose-response curves were established for the determination of IC50 values. Data are means±SEM of three independent experiments.

[2] = Redox properties by differential pulse and cyclic voltammetry; format: physicochemical; details: for reversibility of the oxidation reaction: cyclic voltammetry, physiological pH; for Ep (redox potential): physiological pH (7.4), voltammetry
Description: In an embodiment, and as an example, AntiOxCINs redox properties were evaluated (Table 1). Redox potentials are correlated with the ability of an antioxidant to donate a hydrogen atom and/or an electron to a free radical.
However, for pyrogallol derivatives (AntiOxCIN4, AntiOxCIN5 and AntiOxCIN7), a significant decrease in redox potentials was observed (Ep=0.034-0.057 V) (Table 1).
The voltammograms presented a diffusion peak and an adsorption post-peak at a more anodic potential correspondent to the oxidation of dissolved and adsorbed forms of the compounds, respectively. The oxidation waves can be related to the oxidation process of the pyrogallol moiety. The cyclic voltammograms also show the presence of two overlapped anodic peaks. The anodic peaks appeared to correspond to irreversible processes as any distinct reduction wave was not seen on the cathodic sweep. The existence of the additional phenolic group in the pyrogallol systems, when compared with the catechol ones, seems to influence the stabilization of the semiquinone intermediate and in turn the oxidative mechanism.
(§3) In an embodiment, the electrochemical analytical data was obtained using a computer controlled potentiostat Autolab PGSTAT302N (Metrohm Autolab, Utrecht, Netherlands). Generally, cyclic voltammetry (CV) data was acquired at a scan rate of 50 mVs^−1. Differential pulse voltammetry (DPV) results were acquired at a step potential of 4 mV, pulse amplitude of 50 mV and scan rate of 8 mVs^−1. The electrochemical signals were monitored by the General Purpose Electrochemical System (GPES) version 4.9, software package. All electrochemical experiments were performed at room temperature in an electrochemical cell that was placed in a Faraday cage in order to minimize the contribution of background noise to the analytical signal.
(§4) In an embodiment, the process of evaluation of AntiOxCINs redox properties was conducted as follows: stock solutions of each compound (10 mM) were prepared by dissolving the appropriate amount in ethanol. The voltammetric working solutions were prepared in the electrochemical cell, at a final concentration of 0.1 mM. The […] supporting electrolyte was prepared by diluting […] to 100 mL. Voltammetric data was acquired in a three-electrode system consisting of a glassy carbon electrode (GCE, d=2 mm) as working electrode, a counter electrode of platinum wire and a saturated Ag/AgCl reference electrode. In an embodiment, the evaluation of AntiOxCINs lipophilic properties was performed as follows: the electrochemical cell was a four-electrode system with arrays of micro liquid-liquid interfaces (μlTIES) containing two Ag/AgCl reference electrodes and two counter electrodes of Pt, one in each phase. The microporous membrane was sealed with a fluorosilicone sealant (Dow Corning 730) onto a glass cylinder which was filled with 4.0 mL of the aqueous phase, where the aliquots of AntiOxCINs solutions were added. The membrane was then immersed into the organic phase contained in the cell. The organic phase reference solution (a 2 mM BTPPACI+2 mM NaCl aqueous solution) was mechanically stabilized The aqueous supporting electrolyte solution was a Tris-HCl buffer 10 mM pH 7.0.

[3] = Lipophilic properties by electrochemistry at ITIES (transfer potential); format: physicochemical; details: aqueous phase to 1,6-dichlorohexane, DPV, C=0.32 mM
Description: In an embodiment, AntiOxCINs lipophilic properties were evaluated at physiological pH by electrochemistry. The used technique is often used to mimic the transfer of ionic drugs through biological membranes as the process occurs at the interface between two immiscible electrolyte solutions (ITIES). The transfer potential (Etr) at which the ionic drug, initially present in the aqueous phase (C=0.32 mM), is transferred to the 1,6-dichlorohexane (DCH) phase is measured by differential pulse voltammetry (DPV). In the ITIES model, the transfer potential (Etr) becomes less positive with the increasing of the drug lipophilic character.
as §3, §4

[4] = ABTS radical cation scavenging activity (TAC assay); format: biochemical; details: ethanol
Source text: as §1, §2
In an embodiment, the ABTS.^+ scavenging activity was evaluated as follows: ethanolic solutions of the test compounds with increasing concentrations (range between 10 μM and 500 μM) were prepared. ABTS.^+ radical cation solution was obtained by addition of 150 mM aqueous potassium persulfate solution (163 μL) to 10 mL of 7 mM aqueous ABTS solution followed by storage in the dark at room temperature for 16 h (2.45 mM final concentration). The solution was then diluted in ethanol to reach the absorbance of 0.72±0.02. After addition of the compound (20 μL), in triplicate, to ABTS.^+ solution (180 μL) the spectrophotometric measurement was carried out each minute over 15 minutes. […] Dose-response curves were established for the determination of IC50 values. Data are means±SEM of three independent experiments.

| SMILES | pIC50 [1] | reversibility of the oxidation reaction [2] | Ep (redox potential) ([2]; listed as AntiOxClN2, methanesulfonate) [V] | Etr (transfer potential) [3] [V] | pIC50 [4] | Ep (redox potential) ([2]; listed as AntiOxClN4, methanesulfonate) [V] | Ep (redox potential) ([2]; listed as AntiOxClN3) [V] | Ep (redox potential) ([2]; listed as AntiOxClN7, methanesulfonate) [V] | Ep (redox potential) ([2]; listed as AntiOxClN5, methanesulfonate) [V] | Ep (redox potential) [2] [V] | Ep (redox potential) ([2]; listed as AntiOxClN6, methanesulfonate) [V] |
| --- | --- | --- | --- | --- | --- | --- | --- | --- | --- | --- | --- |
| CS(=O)(=O)[O-].O=C(/C=C/c1ccc(O)c(O)c1)NCCCCCC[P+](c1ccccc1)(c1ccccc1)c1ccccc1 [AntiOxCIN2, (E)-(6-(3-(3,4-dihydroxyphenyl)prop-2-enamido)hexyl)triphenylphosphonium methanesulfonate] | 4.53 | reversible reaction | 0.164 | 0.396 | 4.52 | – | – | – | – | – | – |
| CS(=O)(=O)[O-].O=C(/C=C/c1cc(O)c(O)c(O)c1)NCCCCCC[P+](c1ccccc1)(c1ccccc1)c1ccccc1 [AntiOxCIN4, (E)-(6-(3-(3,4,5-trihydroxyphenyl)prop-2-enamido)hexyl)triphenylphosphonium methanesulfonate] | 4.72 | irreversible oxidation reaction | – | 0.498 | 4.91 | 0.034 | – | – | – | – | – |
| CS(=O)(=O)[O-].O=C(/C=C/c1ccc(O)c(O)c1)NCCCCCCCC[P+](c1ccccc1)(c1ccccc1)c1ccccc1 [AntiOxCIN3, (E)-(8-(3-(3,4-dihydroxyphenyl)acrylamido)octyl)triphenylphosphoniummethanesulfonate] | 4.55 | reversible reaction | – | 0.345 | 4.55 | – | 0.170 | – | – | – | – |
| CS(=O)(=O)[O-].O=C(/C=C/c1cc(O)c(O)c(O)c1)NCCCCCCCCCC[P+](c1ccccc1)(c1ccccc1)c1ccccc1 [AntiOxCIN7, (E)-(10-(3-(3,4,5-trihydroxyphenyl)acrylamido)decyl)triphenylphosphonium methanesulfonate] | 4.86 | irreversible oxidation reaction | – | 0.377 | 5.12 | – | – | 0.057 | – | – | – |
| CS(=O)(=O)[O-].O=C(/C=C/c1cc(O)c(O)c(O)c1)NCCCCCCCC[P+](c1ccccc1)(c1ccccc1)c1ccccc1 [AntiOxCIN5, (E)-(8-(3-(3,4,5-trihydroxyphenyl)acrylamido)octyl)triphenylphosphonium methanesulfonate] | 4.83 | irreversible oxidation reaction | – | 0.423 | 5.06 | – | – | – | 0.046 | – | – |
| O=C(O)/C=C/c1ccc(O)c(O)c1 [Caffeic acid, caffeic acid, reference compound] | 4.74 | reversible reaction | – | – | 4.75 | – | – | – | – | 0.168 | – |
| CS(=O)(=O)[O-].O=C(/C=C/c1ccc(O)c(O)c1)NCCCCCCCCCC[P+](c1ccccc1)(c1ccccc1)c1ccccc1 [AntiOxCIN6, (E)-(10-(3-(3,4-dihydroxyphenyl)acrylamido)decyl)triphenylphosphonium methanesulfonate] | 4.59 | reversible reaction | – | 0.291 | 4.63 | – | – | – | – | – | 0.174 |
